Results reported in ChEMBL document CHEMBL1201862, “PubChem BioAssay data set” (2004).
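Protocol summary: plate cells (96-well), add compound at 5 concentrations, incubate 48 h, interpolate endpoints linearly. GI50 is the concentration that inhibits growth by half.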 Activity calls are given as the source filed them. Rule as the data show it: active = GI50 up to about 1.1 µM and inactive = higher.

What was measured:
Experiment in all cases: NCI-60 cell line screen, 48 h
[1] = test system: OVCAR-3
[2] = test system: LOX IMVI
[3] = test system: M14
[4] = test system: OVCAR-4
[5] = test system: MDA-MB-231
[6] = test system: NCI-H226
[7] = test system: K562
[8] = test system: NCI/ADR-RES
[9] = test system: MCF7
[10] = test system: OVCAR-5
[11] = test system: SF-268
[12] = test system: RPMI-8226
[13] = test system: SK-MEL-5
[14] = test system: A549
[15] = test system: U-251
[16] = test system: UO-31
[17] = test system: UACC-62
[18] = test system: MDA-MB-435
[19] = test system: SR
[20] = test system: SNB-75

Compound	GI50 [1]	GI50 [2]	GI50 [3]	GI50 [4]	GI50 [5]	GI50 [6]	GI50 [7]	GI50 [8]	GI50 [9]	GI50 [10]	GI50 [11]	GI50 [12]	GI50 [13]	GI50 [14]	GI50 [15]	GI50 [16]	GI50 [17]	GI50 [18]	GI50 [19]	GI50 [20]
COC(=O)c1ccc(NCc2cc(O)ccc2O)cc1O	3.6 µM (inactive)	13 µM (inactive)	16.5 µM (inactive)	13.2 µM (inactive)	11 µM (inactive)	14 µM (inactive)	4.1 µM (inactive)	1.85 µM (inactive)	6.67 µM (inactive)	16.7 µM (inactive)	7.29 µM (inactive)	1.17 µM (inactive)	12.6 µM (inactive)	12.2 µM (inactive)	11.9 µM (inactive)	1.82 µM (inactive)	13.1 µM (inactive)	11.1 µM (inactive)	5.48 µM (inactive)	3.08 µM (inactive)
Cn1c2c(c3c(=O)[nH]ncc31)CCCc1ccccc1-2	26.8 µM (inactive)	21.6 µM (inactive)	39.3 µM (inactive)	37.4 µM (inactive)	27.5 µM (inactive)	27.2 µM (inactive)	11.3 µM (inactive)	36.7 µM (inactive)	25 µM (inactive)	45.2 µM (inactive)	29.2 µM (inactive)	17.4 µM (inactive)	16.1 µM (inactive)	27.2 µM (inactive)	27.9 µM (inactive)	22.6 µM (inactive)	28.7 µM (inactive)	20.9 µM (inactive)	0.0993 µM (active)	23.6 µM (inactive)
Cc1ccc(/C(Cl)=C/C=C(C#N)C#N)cc1	1.93 µM (inactive)	1.17 µM (inactive)	2.51 µM (inactive)	3.22 µM (inactive)	2.64 µM (inactive)	4.39 µM (inactive)	0.817 µM (active)	2.18 µM (inactive)	30.4 µM (inactive)	2.6 µM (inactive)	5.9 µM (inactive)	2.35 µM (inactive)	1.8 µM (inactive)	21.9 µM (inactive)	4.18 µM (inactive)	4.58 µM (inactive)	4.51 µM (inactive)	2.47 µM (inactive)	1.37 µM (inactive)	13.2 µM (inactive)
Cc1ccc(NC(=O)CCc2nnc3s/c(=C\C=C\c4ccccc4)c(=O)n23)cc1	44.9 µM (inactive)	27 µM (inactive)	> 100 µM (inactive)	> 56.2 µM (inactive)	> 100 µM (inactive)	> 100 µM (inactive)	> 100 µM (inactive)	26.5 µM (inactive)	> 71.4 µM (inactive)	> 100 µM (inactive)	59.3 µM (inactive)	46.9 µM (inactive)	> 95.5 µM (inactive)	> 100 µM (inactive)	53.3 µM (inactive)	> 100 µM (inactive)	80.4 µM (inactive)	> 86.5 µM (inactive)	7.29 µM (inactive)	> 83.2 µM (inactive)
COc1cc(C2c3cc4c(cc3[C@@H](Nc3ccc(F)cc3)C3COC(=O)[C@H]23)OCO4)cc(OC)c1O (stereo partly drawn)	5.04 µM (inactive)	0.753 µM (active)	2.56 µM (inactive)	15.1 µM (inactive)	4.33 µM (inactive)	0.897 µM (active)	3.87 µM (inactive)	3.97 µM (inactive)	0.408 µM (active)	5.3 µM (inactive)	3.17 µM (inactive)	1.1 µM (active)	1.78 µM (inactive)	0.224 µM (active)	1.09 µM (active)	1.65 µM (inactive)	0.841 µM (active)	4.17 µM (inactive)	0.106 µM (active)	1.91 µM (inactive)
CCOC(=O)c1nc2ccc(C(F)(F)F)cc2nc1Oc1ccc(C(=O)OC)cc1		> 100 µM (inactive)	57.1 µM (inactive)	98.4 µM (inactive)	80.7 µM (inactive)	45.5 µM (inactive)	> 100 µM (inactive)	> 100 µM (inactive)	43.1 µM (inactive)		76.4 µM (inactive)	> 100 µM (inactive)	43.1 µM (inactive)		36.1 µM (inactive)	> 100 µM (inactive)	59.4 µM (inactive)	71.1 µM (inactive)	> 100 µM (inactive)	50.4 µM (inactive)
CC1=C(C)CC2(C=C(C(C)(C)C)C(=O)C(C(C)(C)C)=C2)SC1	17.9 µM (inactive)	17.4 µM (inactive)	24.7 µM (inactive)	26.7 µM (inactive)	14.3 µM (inactive)	17 µM (inactive)	30.3 µM (inactive)	19.1 µM (inactive)	15.6 µM (inactive)	20.1 µM (inactive)	19.5 µM (inactive)	12.8 µM (inactive)	13.2 µM (inactive)	21.9 µM (inactive)	15.6 µM (inactive)	15.7 µM (inactive)	29.2 µM (inactive)	19.5 µM (inactive)	26.5 µM (inactive)	16.1 µM (inactive)
COc1ccc2c(c1)CCc1c-2[nH]c2ccc(OC)cc12	> 100 µM (inactive)	> 100 µM (inactive)	> 100 µM (inactive)	> 100 µM (inactive)	> 100 µM (inactive)	36.4 µM (inactive)	> 100 µM (inactive)	> 100 µM (inactive)	> 100 µM (inactive)	> 100 µM (inactive)	> 100 µM (inactive)	> 100 µM (inactive)	> 100 µM (inactive)	> 100 µM (inactive)	> 100 µM (inactive)	> 100 µM (inactive)	> 100 µM (inactive)	> 100 µM (inactive)	> 100 µM (inactive)	> 100 µM (inactive)
C/C(=N\Nc1nc2ccccc2[nH]1)c1ccncn1	0.25 µM (active)	0.0942 µM (active)	0.0951 µM (active)	0.324 µM (active)	3.64 µM (inactive)	0.0817 µM (active)	0.681 µM (active)	0.153 µM (active)	0.152 µM (active)	4.11 µM (inactive)	0.0879 µM (active)	0.196 µM (active)	0.157 µM (active)	0.151 µM (active)	0.147 µM (active)	0.114 µM (active)	0.0764 µM (active)	0.154 µM (active)	0.0811 µM (active)	0.352 µM (active)
Cc1ccc(Nc2ncnc3sc(SCc4ccccc4)nc23)cc1	> 100 µM (inactive)	> 100 µM (inactive)	> 100 µM (inactive)	> 100 µM (inactive)	> 100 µM (inactive)	> 100 µM (inactive)	> 100 µM (inactive)	> 100 µM (inactive)	> 100 µM (inactive)	43.7 µM (inactive)	> 100 µM (inactive)	48 µM (inactive)	82.6 µM (inactive)	88.9 µM (inactive)	> 100 µM (inactive)	56 µM (inactive)		> 100 µM (inactive)	> 100 µM (inactive)	> 100 µM (inactive)
NC(=O)/C=C/c1c[nH]c2nccnc12	2.34 µM (inactive)	0.625 µM (active)	3.97 µM (inactive)	4.09 µM (inactive)	3.71 µM (inactive)	0.78 µM (active)	0.966 µM (active)	2.89 µM (inactive)	3.27 µM (inactive)	0.15 µM (active)	2.05 µM (inactive)	2.43 µM (inactive)	2.25 µM (inactive)	4.41 µM (inactive)	4.85 µM (inactive)	0.735 µM (active)	2.76 µM (inactive)	3.59 µM (inactive)	1.66 µM (inactive)	1.78 µM (inactive)
O=C(Oc1ccc(C(c2c(O)c3ccccc3oc2=O)c2c(O)c3ccccc3oc2=O)cc1)c1ccc(C(=O)c2ccccc2)cc1	18.3 µM (inactive)	21.9 µM (inactive)		38.4 µM (inactive)	35.6 µM (inactive)	10.6 µM (inactive)	22.1 µM (inactive)	17.3 µM (inactive)	29.4 µM (inactive)	19.4 µM (inactive)	25.6 µM (inactive)	22.6 µM (inactive)	29.3 µM (inactive)	25.3 µM (inactive)	23.6 µM (inactive)	17.8 µM (inactive)	19.6 µM (inactive)	20.3 µM (inactive)	26.1 µM (inactive)	17.7 µM (inactive)
CN1C(=O)C(O)CC1c1ccccc1F (stereo not drawn)	> 100 µM (inactive)	> 100 µM (inactive)	> 100 µM (inactive)	> 100 µM (inactive)	> 100 µM (inactive)	> 100 µM (inactive)	> 100 µM (inactive)	> 100 µM (inactive)	> 100 µM (inactive)	> 100 µM (inactive)		> 100 µM (inactive)	> 100 µM (inactive)	> 100 µM (inactive)	> 100 µM (inactive)	> 100 µM (inactive)	> 100 µM (inactive)	> 100 µM (inactive)	> 100 µM (inactive)	> 100 µM (inactive)
S=c1[nH]nc(Cn2c3ccc(Br)cc3c3nc4ccccc4nc32)n1C1CCCCC1	18.5 µM (inactive)		29.8 µM (inactive)	13.7 µM (inactive)	36.5 µM (inactive)	20.5 µM (inactive)	25.9 µM (inactive)	27 µM (inactive)	16.7 µM (inactive)	32.5 µM (inactive)	51.6 µM (inactive)	17.7 µM (inactive)	6.87 µM (inactive)	21.2 µM (inactive)	18.5 µM (inactive)	18.2 µM (inactive)	16.1 µM (inactive)	20.3 µM (inactive)	8.13 µM (inactive)	52.2 µM (inactive)
